Test results taken from US9101567B2, “Suppression of cancer growth and metastasis using nordihydroguaiaretic acid derivatives with 7-hydroxystaurosporine” (The Johns Hopkins University, priority 2010, dated 2015).
Values joined by “and” are separate entries in the source; they are usually repeats but may differ in a detail not shown here. Identical values can stand only once.

Key:
caspase-3 and 9 = assay: Western blotting of cleaved caspase-3 and 9 in LNCaP cells; format: cell-based, human; conditions: 17 hrs, M4N 80 μM, etoposide 10 μM, rapamycin 10 μM, UCN-01 2 μM
Experimental: (§1) The sample volumes were adjusted by the total protein amount. Protein assay was performed by Bio-Rad Protein Assay (Bio-Rad Laboratories, Inc. Hercules, Calif.). The samples were resolved by the standard SDS-polyacrylamide gel electrophoresis and transferred to nitrocellulose membrane (Amersham Biosciences, Bjorkgatan, Sweden). The membranes were blocked with skim milk, and incubated with primary antibodies at 4° C. overnight and then with secondary antibody conjugated with horse radish peroxidase at room temperature for 2 hrs. The signals were detected by western blot chemiluminescence reagent plus (New England Nuclear Life Science Products, Boston, Mass.).
(§2) The efficacy of the combination treatment of M4N with three anticancer drugs, etoposide, rapamycin, and UCN-01 to induce cell death was examined for LNCaP human prostate cancer cells with TUNEL assay. We chose these anticancer drugs trying to diversify the mechanisms in which the anticancer drugs work (43-45). […] Additionally the effect of caspase-3 and 7 inhibitor, zDEVD-fmk on the cell death induced by the combination treatment was examined (FIG. 1E).

caspase-7 [1] = assay: Western blotting of caspase-7 cleavage in LNCaP cells; format: cell-based, human; conditions: 17 hrs, M4N 80 μM, etoposide 10 μM, rapamycin 10 μM, UCN-01 2 μM
Experimental: as §1, §2

caspase-7 [2] = assay: Enzymatic assay for caspase-7 in extracts of treated LNCaP cells; format: cell-based, human; conditions: extracts of LNCaP cells treated for 13 hrs
Experimental: The enzymatic assay specific for caspase-7 was performed using a CaspSELECT caspase-7 immunoassay kit (BioVision, Mountain View, Calif.). This assay is based on the […] assay with DEVD-afc. Since DEVD-afc can be a substrate for either caspase-3 or 7, only caspase-7 is selected from cell extracts by anti-caspase-7 antibody which is coated on microtiter plates. Briefly the microtiter plates were coated with anti-caspase-7 antibody overnight at 4 C and blocked with a blocking solution for 30 minutes at room temperature. The cell extracts were applied to the microtiter plates. After washing the microtiter plates, the substrate […] was added to the plates and incubated for about three hours. The fluorescence was measured by a microtiter plate fluorescence reader Infinite 200 (Tecan, Switzerland).
as §2

[3] = tested on: OC24 human ovarian cancer cells; assay: OC24 ovarian cancer-bearing nude mice: survival, ascites fluid, abdominal tumors; format: in vivo, nude mice (nu/nu); conditions: for survival rate at 45 days after treatment: OC24 tumor-bearing nude mice, i.v. 1 mg M4N and/or 88.4 μg UCN-01 per shot; for Tumor Weight: abdominal tumors of individual OC24 tumor-bearing mice; for Tumor Weight / Weight of the Ascites Fluid: at the time of death; for Weight of the Ascites Fluid: individual OC24 tumor-bearing mice, data compiled at 45 days after tumor inoculation
Experimental: (§3) T-cell deficient male nude mice (nu/nu) were obtained from Charles River Laboratories (Wilmington, Mass.). […] For drug combinations (M4N/etoposide, M4N/rapamycin, and M4N/UCN-01), etoposide, rapamycin, or UCN-01 powder was further added to M4N in CPE 25/30 to make a final concentration of M4N (10 mg/ml) respectively with etoposide (4 mg/ml), rapamycin (3.75 mg/ml), or UCN-01 ([…]) in CPE 25/30 formulation. These drugs were intravenously injected into the tail vein of mice at the daily dose of 0.1 ml per mouse. Therefore dosages of each injection were 1 mg/shot (for M4N), 0.4 mg/shot (for etoposide), 0.375 mg/shot (for rapamycin), and 88.4 μg/shot (for UCN-01). The drug injections were performed once every day; beginning at day 3 until day 31 after tumor inoculation for the combination treatment with either etoposide or rapamycin and until day 25 after tumor inoculation for the combination treatment with UCN-01. After this the drugs were injected once a week for etoposide/rapamycin combination treatment and once every three days until day 35 for UCN-01 combination treatment. Protocols used in this study were approved by the Institutional Animal Care and Use Committee at the Johns Hopkins University, Department of Biology.
(§4) OC24 cells growing subconfluently were collected into the tissue culture medium without fetal bovine serum and antibiotics. The cell concentration was adjusted by the same medium. The cell solution containing 5×10^4 cells was injected into the peritoneal cavity of each nude mouse at the day 0. The drug treatment started from day 3. For the estimation of the effect of the drug treatment, the volume of ascites fluids and of abdominal tumors was measured.
Next we examined if this combination treatment could improve the anticancer efficacy of M4N in animal experiments. In this experiment we used OC24 ovarian cancer-bearing nude mice as a model system. OC24 cells are very aggressive cancers and have the ability to kill essentially all the mice when only ten thousand cancer cells are inoculated intraperitoneally into a mouse. […] All the mice without any treatments died in less than 26 days after the tumor inoculation. Meanwhile certain percentages of the mice survived in the all treatment groups (M4N alone, UCN-01 alone, or M4N/UCN-01 combination) beyond 45 days after treatment (the time of preparation of the current manuscript). The survival rate at 45 days after treatment was 33%, 20%, and 42% for M4N alone, UCN-01 alone, or M4N/UCN-01 combination group respectively.
To further evaluate the anticancer efficacy of M4N/UCN-01 combination treatment, we next measured the volume of the ascites fluid and that of abdominal tumors. The ascites fluid was collected from the peritoneal cavity at the time of death of tumor-bearing mice. Abdominal tumors are usually located in the vicinity of the area where the tumors were inoculated by the needle. […] The data was compiled at 45 days after tumor inoculation. Therefore there were still several mice who still survived from tumor burden.

[4] = Body weight change in OC24 tumor-bearing mice; format: in vivo, nude mice (nu/nu); conditions: individual mice
Experimental: as §3, §4
Once the ascites fluid starts to accumulate in the peritoneal cavity, it sometimes constitutes a significant portion of the body weight.
The increase of the body weight of deceased mice at the time of the death over the initial weight was 37.8% (SD=18.9%, N=19) while the increase of the body weight of alive mice at days after tumor inoculation over the initial weight was 9.5% (SD=7.5%, N=6). The difference of two groups is statistically significant by t-test (0.2%). […] Therefore the body weight change can be used as an indicator to estimate the volume of ascites and thus overall condition of the mice. […] The body weight increased slightly after day 26. However it hasn't reached the peak weight achieved at day 22 (30.5 g). […] The pictures show the apparent decrease of the volume of abdominal area from day 22 to day 29 through day 26. This almost certainly indicated the reduction of ascites fluid. […] The observations depicted in FIGS. 8 B and 8C indicate that the combination treatment of M4N with UCN-01 can suppress tumor burden even after the tumor size has already reached to a certain extent. Discussion

Structure (SMILES) | expression of cleaved caspase-3 and 9 (caspase-3 and 9) | caspase-7 cleavage products (20 and 34 kDa) (caspase-7 [1]) | caspase-7 activation (enzymatic activity) (caspase-7 [2]) | survival rate at 45 days after treatment [3] [%] | Tumor Weight [3] | Weight of the Ascites Fluid [3] | Body weight ([4]; Day No. 0 (10-Dec)) | Body weight ([4]; Day No. 2 (12-Dec)) | Body weight ([4]; Day No. 3 (13-Dec)) | Body weight ([4]; Day No. 8 (18-Dec)) | Body weight ([4]; Day No. 12 (22-Dec)) | Body weight ([4]; Day No. 22 (1-Jan)) | Body weight ([4]; Day No. 26 (5-Jan)) | Body weight ([4]; Day No. 29 (8-Jan)) | Body weight ([4]; Day No. 32 (11-Jan)) | Body weight ([4]; Day No. 33 (12-Jan)) | Body weight ([4]; Day No. 34 (13-Jan)) | Body weight ([4]; Day No. 35 (14-Jan)) | Body weight ([4]; Day No. 36 (15-Jan)) | Body weight ([4]; Day No. 37 (16-Jan)) | further results
COc1ccc(C[C@@H](C)[C@@H](C)Cc2ccc(OC)c(OC)c2)cc1OC [M4N, Tetra-O-methyl nordihyroguaiaretic acid] | didn't induce the cleavage | small amount | only a small amount | 33 | 101.3 mg and <100 mg and 360.5 mg and 69 mg | 4.4 g and Living (2×) and 7.8 g and 5.8 g and 16.1 g | 24.1 grams and 22.9 grams and 23.5 grams and 22.3 grams and 20 grams and 21.4 grams | 22.3 grams and 20.8 grams and 22.9 grams and 21.5 grams and 19.1 grams and 20.9 grams | 22.8 grams and 21.2 grams and 23.4 grams and 20.9 grams and 20.2 grams and 20.5 grams | 30.1 grams and 25.8 (31st Dec) grams | 23.9 grams and 21.9 grams and 27.7 grams (2×) and 29.8 (Euthanized on 1st Jan) grams | 23.2 grams and 21.5 grams and 28 grams and 38.8 grams | 24.1 grams and 22.5 grams and 28.1 grams | 26.2 grams and 22.7 grams | 25.5 grams and 22.5 grams | 25.3 grams and 23.1 grams | 25.3 grams and 22.9 grams | 24.8 grams and 22 grams | 25.7 grams and 22.4 grams | 25.8 grams and 22.6 grams | Body weight ([4]; Day No. 38 (17-Jan)): 25.9 grams and 22.9 grams; Body weight ([4]; Day No. 39 (18-Jan)): 26.3 grams and 22.7 grams; Body weight ([4]; Day No. 40 (19-Jan)): 26.4 grams and 22.9 grams; Body weight ([4]; Day No. 41 (20-Jan)): 26.4 grams and 23.1 grams; Body weight ([4]; Day No. 42 (21-Jan)): 25.3 grams and 23.2 grams; Body weight ([4]; column head Day No. 25 (4-Jan)): 37.5 grams; Body weight ([4]; column head Day No. 28 (7-Jan)): 27.9 grams
CN[C@@H]1C[C@H]2O[C@@](C)([C@@H]1OC)n1c3ccccc3c3c4c(c5c6ccccc6n2c5c31)C(=O)N[C@H]4O [UCN-01, 7-hydroxystaurosporine] | great expression | great amount | to some extent | 20 | No Tumor (2×) and 360.5 mg and 87 mg | 7.4 g and 15 g and Living and 14.3 g and 2.9 g | 22.8 grams and 22.1 grams and 23.4 grams and 21.6 grams and 19.6 grams and 20.6 grams | 22.6 grams (2×) and 18.3 grams and 20.8 grams | 23.4 grams and 21.8 grams and 35.7 grams and 30.5 grams and 22.9 grams and 21.9 Died due to injection & not the tumor (28th Dec) grams | 39.5 grams and 35.9 grams and 26.2 grams | 24.4 grams and 30.7 grams and 38.4 (6th Jan) grams and 27.3 grams | 24.8 grams and 29.5 grams | 25.5 grams | 27.9 grams | 27.6 grams | 27.4 grams | 27.5 grams | 26.5 grams | 27.2 grams | 27.3 grams | Body weight ([4]; Day No. 38 (17-Jan)): 27.1 grams; Body weight ([4]; Day No. 39 (18-Jan)): 27.4 grams; Body weight ([4]; Day No. 40 (19-Jan)): 27.4 grams; Body weight ([4]; Day No. 41 (20-Jan)): 27.8 grams; Body weight ([4]; Day No. 42 (21-Jan)): 26.7 grams; Body weight ([4]; column head Day No. 18 (28-Dec)): 22.5 grams
